Measured values published in patent US10676462B2, “Quinoline derivative” (ONO PHARMACEUTICAL CO., LTD., priority 2013, dated 2020).

Biological target: T1, Axl enzyme (Homo sapiens, UniProt P30530)
T1 construct: a solution containing 400 ng/mL Axl enzyme was prepared
T1 sequence (P30530 26-894): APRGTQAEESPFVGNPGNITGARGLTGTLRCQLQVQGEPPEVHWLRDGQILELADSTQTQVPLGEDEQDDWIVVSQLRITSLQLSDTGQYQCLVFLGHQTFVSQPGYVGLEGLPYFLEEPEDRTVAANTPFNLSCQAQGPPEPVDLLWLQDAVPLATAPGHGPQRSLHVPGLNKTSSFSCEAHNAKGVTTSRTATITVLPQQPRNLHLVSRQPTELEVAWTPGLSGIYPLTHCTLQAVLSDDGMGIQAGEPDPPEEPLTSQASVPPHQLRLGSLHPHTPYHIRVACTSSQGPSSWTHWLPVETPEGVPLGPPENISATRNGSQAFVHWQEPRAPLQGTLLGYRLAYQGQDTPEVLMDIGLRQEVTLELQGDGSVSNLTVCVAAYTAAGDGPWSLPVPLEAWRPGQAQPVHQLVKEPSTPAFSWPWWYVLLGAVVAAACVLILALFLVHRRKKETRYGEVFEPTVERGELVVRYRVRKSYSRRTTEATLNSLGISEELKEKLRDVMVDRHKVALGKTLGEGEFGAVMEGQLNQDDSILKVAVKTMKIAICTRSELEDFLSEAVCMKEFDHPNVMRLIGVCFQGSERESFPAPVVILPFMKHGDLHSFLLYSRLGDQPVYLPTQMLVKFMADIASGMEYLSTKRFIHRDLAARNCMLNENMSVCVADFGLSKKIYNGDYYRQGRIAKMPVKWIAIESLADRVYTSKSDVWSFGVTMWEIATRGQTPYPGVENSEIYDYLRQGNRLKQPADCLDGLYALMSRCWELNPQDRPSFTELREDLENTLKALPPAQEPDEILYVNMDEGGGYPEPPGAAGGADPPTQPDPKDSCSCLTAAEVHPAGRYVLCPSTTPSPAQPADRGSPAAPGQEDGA
Assay: Measurement of an Axl inhibitory activity (LanthaScreen TR-FRET, in vitro test)
Type: biochemical
Description: Biological Example 1: Measurement of an Axl Inhibitory Activity (In Vitro Test)
An Axl enzyme inhibitory activity was measured by using LanthaScreen (registered trademark) system (Invitrogen) based on the attached instruction. The reagents used are shown below.
Reaction buffer solution: a solution containing 50 mmol/L HEPES (pH7.5), 0.01% Brij35, 10 mmol/L MgCl2 and 1 mmol/L EGTA was prepared by using purified water.
Test substance solution: a solution containing a test compound of 5-fold concentration with respect to the final concentration was prepared by 20-fold diluting a DMSO solution of test compound of each concentration with the reaction buffer solution.
Enzyme solution: a solution containing 400 ng/mL Axl enzyme was prepared by using the reaction buffer solution.
Substrate solution: a solution containing 45 μmmol/L ATP and 500 nmmol/L Fluorescein-Poly GT (Invitrogen) was prepared by using the reaction buffer solution.
Detection solution: a solution containing 20 mM EDTA and 4 nM PY20 (Invitrogen) was prepared by using Dilution B (Invitrogen).
A 10 mmol/L DMSO solution of the test compound was dispensed into a 96-well plate (Nunc), and, furthermore, a 3-fold dilution series was prepared using DMSO. In each well of the 96-well plate for measurement, 5 μL each of the reaction buffer solution containing DMSO was added to a Blank group and a medium group, and 5 μL of the test substance solution was added to the test substance group, respectively. Next, 10 μL/well of the reaction buffer solution was added to the Blank group, and 10 μL/well each of the enzyme solution was added to the medium group and the test compound group, followed by stirring at room temperature for 10 min. After the completion of stirring, 10 μL each of the substrate solution was added into each well, followed by stirring at room temperature with light shielded for one hour. After the completion of reaction, 25 μL each of the detection solution was added to each well, and stood still at room temperature with light shielded for 30 min. After standing sill, fluorescence intensity at 520 nm and 495 nm at the time of irradiation with exciting light of 340 nm was measured by using Analyst GT (Molecular Devices). The phosphorylation of the artificial substrate was quantified by Time-resolved Fluorescence Resonance Energy Transfer (TR-FRET). TR-FRET ratio was calculated by dividing 520 nm fluorescence signal by 495 nm fluorescence signal for each well, and the inhibition rate (%) in the test compound group was calculated based on the following mathematical formula. Inhibition rate (%)=[1−(TR-FRET ratio of test compound group−A)/(B−A)×100 [Math. 1] A: average value of TR-FRET ratios of Blank group B: average value of TR-FRET ratios of medium group
Values of 50% inhibition rate (IC50 values) of the test compound were calculated from the inhibition curve based on the inhibition rate of the test compounds in each concentration.

Row | IC50 | SMILES
1 | 5.6 nM | COc1cc2nccc(Oc3ccc(NC(=O)c4cc5c(n(-c6ccccc6)c4=O)CC(C)(C)CC5=O)nc3)c2cc1OC [Example 5(1), N-{5-[(6,7-dimethoxy-4-quinolinyl)oxy]-2-pyridinyl}-7,7-dimethyl-2,5-dioxo-1-phenyl-1,2,5,6,7,8-hexahydro-3-quinolinecarboxamide]
2 | 4.4 nM | O=C1CCCc2c1cc(C(=O)Nc1ccc(Oc3ccnc4cc(OCCCN5CCOCC5)ccc34)cn1)c(=O)n2-c1ccccc1 [Example 17(2), N-[5-({7-[3-(4-morpholinyl)propoxy]-4-quinolinyl}oxy)-2-pyridinyl]2,5-dioxo-1-phenyl-1,2,5,6,7,8-hexahydro-3-quinolinecarboxamide]
3 | 1.1 nM | COc1cc2nccc(Oc3ccc(NC(=O)c4cc5c(n(-c6ccccc6)c4=O)CCCC5=O)c(C)c3)c2cc1OC [Example 23(2), N-{4-[(6,7-dimethoxy-4-quinolinyl)oxy]-2-methylphenyl}-2,5-dioxo-1-phenyl-1,2,5,6,7,8-hexahydro-3-quinolinecarboxamide]

Row | SMILES | IC50
4 | COc1cc2nccc(Oc3ccc(NC(=O)c4cc5c(n(-c6ccccc6)c4=O)CCCC5=O)nc3)c2cc1OC [Example 5, N-{5-[(6,7-dimethoxy-4-quinolinyl)oxy]-2-pyridinyl}-2,5-dioxo-1-phenyl-1,2,5,6,7,8-hexahydro-3-quinolinecarboxamide] | 2.2 nM
